Literature values, collected in patent US9913492B1, “Yolatile liquid inhaler and method of manufacture” (priority 2010, dated 2018).

Legend:
[1] = at 25 degrees C.

## COC(=O)[C@H]1[C@@H](OC(=O)c2ccccc2)C[C@@H]2CC[C@H]1N2C [cocaine]
Adult human beings; comparison with nicotine
  lethal dose: 1000 mg

## CN1CCCC1c1cccnc1 (centres unmarked) [nicotine]
rats
  LD50: 50 mg/kg
mice
  LD50: 3 mg/kg
[1]
  vapor pressure: 0.53 MBR
Adult human beings; adult human beings
  lethal dosage: 40 to 60 mg
